Experimental data published in patent US20220267260A1, “COMPOUNDS CONTAINING A SULFONIC GROUP AS KAT INHIBITORS” (Epizyme, Inc., priority 2016, published 2022).
pIC50: −log10 of the molar value.

Legend:
[1] = molecular target: T1, KAT5 (Homo sapiens, UniProt Q92993); test: KAT5 enzyme inhibition assay (SAMDI mass spectrometry); format: biochemical; conditions: His-TEV-FL KAT5-Flag enzyme construct
T1 construct: His-TEV tag (N, cleaved yes); made in house

[2] = molecular target: T2, KAT6A (Homo sapiens, UniProt Q92794); test: KAT6A enzyme inhibition assay (SAMDI mass spectrometry); format: biochemical; conditions: His-TEV-KAT6A 501-784 enzyme construct
T2 construct: His-TEV tag (N, cleaved yes); made in house
T2 sequence (Q92794 with tags, fused parts or gaps): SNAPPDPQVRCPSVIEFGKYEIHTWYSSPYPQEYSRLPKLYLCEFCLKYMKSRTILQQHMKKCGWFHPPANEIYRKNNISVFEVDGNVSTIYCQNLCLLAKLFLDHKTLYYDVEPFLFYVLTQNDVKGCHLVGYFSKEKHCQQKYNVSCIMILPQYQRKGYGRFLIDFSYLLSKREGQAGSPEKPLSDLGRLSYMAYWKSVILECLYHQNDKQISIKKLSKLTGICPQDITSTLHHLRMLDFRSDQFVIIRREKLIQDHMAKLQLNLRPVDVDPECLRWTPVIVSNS

T1 sequence (Q92993 with tags, fused parts or gaps): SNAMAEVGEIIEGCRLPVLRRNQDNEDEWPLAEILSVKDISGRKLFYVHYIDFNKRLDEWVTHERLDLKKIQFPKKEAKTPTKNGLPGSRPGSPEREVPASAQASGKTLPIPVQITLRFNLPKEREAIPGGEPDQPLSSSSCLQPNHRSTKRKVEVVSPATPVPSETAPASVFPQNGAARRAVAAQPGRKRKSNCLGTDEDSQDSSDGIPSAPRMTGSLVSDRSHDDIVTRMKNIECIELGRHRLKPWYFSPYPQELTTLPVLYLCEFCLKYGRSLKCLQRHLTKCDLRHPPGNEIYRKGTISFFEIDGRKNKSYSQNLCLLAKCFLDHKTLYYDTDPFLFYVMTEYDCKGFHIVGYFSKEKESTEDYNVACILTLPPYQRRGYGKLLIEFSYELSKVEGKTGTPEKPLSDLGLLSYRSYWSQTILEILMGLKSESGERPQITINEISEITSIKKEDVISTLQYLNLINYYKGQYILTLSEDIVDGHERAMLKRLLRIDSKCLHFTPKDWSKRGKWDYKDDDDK

SMILES	pIC50 [1]	pIC50 [2]
Cc1cc(-c2cccc(OCCN(C)C)c2)cc(C(=O)NNS(=O)(=O)CC2CCCCC2)c1F [Compound I-365]	4.00 to 4.30	< 4.00
Cc1cc(-c2ccccc2F)cc(C(=O)NNS(=O)(=O)c2ccccc2)c1F [Compound I-271]	≥ 5.00	≥ 5.00
Cn1cnc2c(C(=O)NNS(=O)(=O)C3CCCCC3)cc(-c3ccccc3)cc21 [Compound I-283]	< 4.00	< 4.00
CNC(=O)Cn1nc(C)c(F)c1C(=O)NNS(=O)(=O)C1CCCCC1 [Compound I-503]	< 4.00	< 4.00
Cc1cc(-c2cccc(F)c2)cc(C(=O)NNS(=O)(=O)C2CCCCC2)c1F [Compound I-323]	≥ 5.00	≥ 5.00
O=C(NNS(=O)(=O)CC1CCOCC1)c1cc(-c2cccc(F)c2)cc(Cl)c1F [Compound I-397]	≥ 5.00	≥ 5.00
COc1ccccc1CS(=O)(=O)NNC(=O)c1cc(-c2ccccc2)cc(C)c1F [Compound I-79]	≥ 5.00	≥ 5.00
O=C(NNS(=O)(=O)c1ccccc1)c1c(F)ccc(-c2ccccn2)c1F [Compound I-132]	4.00 to 4.30	≥ 5.00
Cc1cc(-c2ccccc2)cc(C(=O)NNS(=O)(=O)Cc2ccccc2Cl)c1F [Compound I-8]	≥ 5.00	≥ 5.00
O=C(NNS(=O)(=O)c1ccccc1)c1cccc(Cl)c1 [Compound I-190]	4.00 to 4.30	4.30 to 5.00
Cc1cccc(-c2ccc(F)c(C(=O)NNS(=O)(=O)c3ccccc3)c2)c1 [Compound I-125]	4.30 to 5.00	≥ 5.00
Cc1cc(-c2ccccc2)cc(C(=O)Nc2n[nH]c3ncccc23)c1F [Compound I-282]	4.00 to 4.30	4.30 to 5.00
COCCN1CC(CS(=O)(=O)NNC(=O)c2cc(-c3ccccc3)cc(C)c2F)C1 [Compound I-208]	4.30 to 5.00	4.30 to 5.00
Cc1cc(-c2ccccc2)cc(C(=O)NNS(=O)(=O)C2CCN(C(=O)C(C)C)C2)c1F (stereo not drawn) [Compound I-105]	4.30 to 5.00	4.30 to 5.00
O=C(NNS(=O)(=O)C1CCCCC1)c1nc(-c2ccccc2)ccc1F [Compound I-332]	< 4.00	< 4.00
Cc1cc(-c2ccccc2)cc(C(=O)NNS(=O)(=O)C2CN(C(=O)OCc3ccccc3)C2)c1F [Compound I-121, Benzyl 3-((2-(4-fluoro-5-methyl-[1,1′-biphenyl]-3-carbonyl)hydrazinyl)sulfonyl)azetidine-1-carboxylate]	4.30 to 5.00	4.30 to 5.00
O=C(NNS(=O)(=O)c1ccccc1)c1cc2ccccc2cc1F [Compound I-262]	4.00 to 4.30	≥ 5.00

SMILES	pIC50 [1]	pIC50 [2]
COCCC(=O)N1CC(S(=O)(=O)NNC(=O)c2cc(-c3ccccc3)cc(C)c2F)C1 [Compound I-115]	4.00 to 4.30	4.30 to 5.00
Cc1cccc(-c2cc(Cl)c(F)c(C(=O)NNS(=O)(=O)CC3CCN(C(=O)OC(C)(C)C)C3)c2)c1 (stereo not drawn) [Compound I-516]	≥ 5.00	< 4.00
O=C(NNS(=O)(=O)C1CCOCC1)c1cc(CO)cc(Cl)c1F [Compound I-465]	< 4.00	4.00 to 4.30
Cc1cc(-c2ccccc2)cc(C(=O)NNS(=O)(=O)CC2CCCN(C(=O)CCN(C)C(=O)OC(C)(C)C)C2)c1F (stereo not drawn) [Compound I-379]	≥ 5.00	≥ 5.00
Cc1cc(-c2ccccc2)cc(C(=O)NNS(=O)(=O)c2ccccn2)c1F [Compound I-209]	≥ 5.00	≥ 5.00
Cc1cc(-c2ccccc2)cc(C(=O)NNS(=O)(=O)C2CCCN(C(=O)C(C)C)C2)c1F (stereo not drawn) [Compound I-111]	4.30 to 5.00	≥ 5.00
CNC(=O)Cn1nc(C(=O)NNS(=O)(=O)C2CCCCC2)c(F)c1C [Compound I-489]	< 4.00	< 4.00
Cc1cc(-c2ccccc2)cc(C(=O)NNS(=O)(=O)C2CCN(C)C2)c1F (stereo not drawn) [Compound I-31]	4.00 to 4.30	4.30 to 5.00
Cn1ccnc1-c1ccc(F)c(C(=O)NNS(=O)(=O)c2ccccc2)c1F [Compound I-172]	< 4.00	4.30 to 5.00
Cc1ccc(-c2ccccc2)c(F)c1C(=O)NNS(=O)(=O)c1ccccc1 [Compound I-139]	< 4.00	< 4.00
O=C(NNC(=O)c1ccccc1F)c1ccccc1 [Compound I-138]	< 4.00	< 4.00
Cc1cc(-c2ccccc2)cc(C(=O)NNS(=O)(=O)C2CCCNC2)c1F (stereo not drawn) [Compound I-97]	< 4.00	4.00 to 4.30
Cn1cc2c(C(=O)NNS(=O)(=O)c3ccccc3)cc(-c3ccccc3)cc2n1 [Compound I-345]	< 4.00	< 4.00
C=CCn1nc(NNS(=O)(=O)c2ccccc2)c2ccccc21 [Compound I-290]	< 4.00	< 4.00
Cc1cc(-c2cccc(F)c2)cc(C(=O)NNS(=O)(=O)CC2CCNCC2)c1F [Compound I-357]	4.00 to 4.30	< 4.00
Cc1cc(-c2cc(F)cc(F)c2)cc(C(=O)NNS(=O)(=O)c2ccccc2)c1F [Compound I-353]	≥ 5.00	≥ 5.00
